Data on 14 compounds can be found in patent US12637471B2, “Heterocyclic compounds, compositions, methods of preparation and uses thereof” (Organon R&D Finland Ltd, priority 2021, dated 2026).

Each structure is given as a SMILES string.

What all share (type): biochemical
In test [1] the target is T1, Recombinant human AKR1C3 (17β-HSD5) protein (Homo sapiens, UniProt P42330).
T1 construct: made in house; host or cells: E. coli
T1 sequence (P42330 1-323): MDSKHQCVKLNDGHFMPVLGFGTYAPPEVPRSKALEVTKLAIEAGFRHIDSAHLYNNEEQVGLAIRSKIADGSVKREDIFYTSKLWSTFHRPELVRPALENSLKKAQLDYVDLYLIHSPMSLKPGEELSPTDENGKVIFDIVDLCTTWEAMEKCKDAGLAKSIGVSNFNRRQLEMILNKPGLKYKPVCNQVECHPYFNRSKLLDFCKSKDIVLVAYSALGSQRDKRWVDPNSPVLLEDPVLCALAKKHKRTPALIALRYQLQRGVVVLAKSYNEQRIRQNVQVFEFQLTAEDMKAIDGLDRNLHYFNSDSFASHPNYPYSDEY
The test can be described thus: Inhibition of AKR1C3 (17β-hydroxysteroid dehydrogenase type 5) enzyme, fluorescence assay. The conditions noted are these: inhibitor at 500 nM. On the procedure:
Inhibition of AKR1C3 (17β-Hydroxysteroid Dehydrogenase Type 5) Enzyme
Recombinant human AKR1C3 (17β-HSD5) protein (GenBank Accession No. NM_003739.6) produced in E. coli was used for screening. Recombinant protein (27 nM/1 μg/ml) was incubated in 20 mM KH2PO4, 1 mM EDTA, complete protease inhibitor cocktail, pH 7.4 with 1 μM 9-acetyl-2,3,6,7-tetrahydro-1H,5H,11H-pyrano[2,3-f]pyrido[3,2,1-ij]quinolin-11-one and 1 mM NADPH for 60 to 120 min at RT, in the presence of the potential inhibitor at 500 nM concentration. Inhibitor stock solutions were prepared in DMSO. Final concentration of DMSO was adjusted to 1% in all samples. The samples were analysed by fluorescent measurement with Tecan Spark microplate reader at wavelengths 420 nm for excitation and 510 nm for emission. Samples were evaluated against standards of 9-(1-hydroxyethyl)-2,3,6,7-tetrahydro-1H,5H,11H-pyrano[2,3-f]pyrido[3,2,1-ij]quinolin-11-one at concentrations 1 μM-10 nM. Background fluorescence was reduced from all the samples and standards. The concentrations of formed product were calculated from the standard curve with Tecan Spark Magellan software. The formed product concentrations were used to calculate conversion percentages. The inhibition percentages for the samples were calculated from the conversion percentages.
Inhibition percentages of samples were calculated using following formula: […]

Test [2] concerns the target T2, Recombinant human aldo-keto reductase family 1 member C2 (AKR1C2) protein (Homo sapiens, UniProt P52895).
T2 construct: made in house; host or cells: Sf-9 insect cells (baculovirus)
T2 sequence (P52895 1-323): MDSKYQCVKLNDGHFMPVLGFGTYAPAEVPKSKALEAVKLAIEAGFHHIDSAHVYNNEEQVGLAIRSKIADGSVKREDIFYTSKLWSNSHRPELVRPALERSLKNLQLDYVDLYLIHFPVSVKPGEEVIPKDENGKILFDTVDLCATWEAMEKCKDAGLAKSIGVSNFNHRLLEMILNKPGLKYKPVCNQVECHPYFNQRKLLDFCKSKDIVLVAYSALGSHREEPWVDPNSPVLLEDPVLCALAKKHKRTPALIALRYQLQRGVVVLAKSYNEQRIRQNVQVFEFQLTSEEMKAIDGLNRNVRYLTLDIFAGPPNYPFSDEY
The test is described as follows: Inhibition of the aldo-keto reductase family 1 member C2, 3H-dihydrotestosterone conversion. The conditions noted are these: inhibitor at 10 μM. How it is done: Inhibition of the Aldo-Keto Reductase Family 1 Member C2
Recombinant human aldo-keto reductase family 1 member C2 (AKR1C2) protein (GenBank Accession No. NM_001354.6) produced in Sf-9 insect cells with baculovirus was used for screening. Recombinant protein (13.6 nM/0.5 μg/ml) was incubated in 20 mM KH2PO4 pH 7.4, 1 mM EDTA, complete protease inhibitor tablet, 1 mM NADPH with 6.25 nM ^3H-labelled dihydrotestosterone for 45 min at +37° C., in the presence of the potential inhibitor at 10 μM concentration. Inhibitor stock solutions were prepared in DMSO. Final concentration of DMSO was adjusted to 1% in all samples. The enzyme reaction was stopped by addition of 10% trichloroacetic acid (final concentration 1%). Samples were filtrated through […] filtration plate (Merck). Analyses of samples was done with Waters Acquity UPLC H-class equipped with XBridge C18 column and XBridge VanGuard C18 guard column. Acetonitrile: 0.1% formic acid in water (42/58 v/v) with flow of 1.2 ml/min was used for mobile phase. The eluent was mixed with scintillant and the radioactivity was monitored in the eluate by a Scintillation Analyser. The conversion percentage of triated substrate (dihydrotestosterone) to tritiated product (5α-androstane-3α,17β-diol) for each sample was determined by the relative percentages of substrate and product in the chromatogram. The inhibition percentages of samples were calculated using following formula: […]

Test [3] deals with T3, 17β-Hydroxysteroid Dehydrogenase Type 2 Enzyme (17β-HSD2) (Homo sapiens, UniProt P37059).
T3 construct: made in house; host or cells: Sf-9 insect cells (baculovirus)
T3 sequence (P37059 1-387): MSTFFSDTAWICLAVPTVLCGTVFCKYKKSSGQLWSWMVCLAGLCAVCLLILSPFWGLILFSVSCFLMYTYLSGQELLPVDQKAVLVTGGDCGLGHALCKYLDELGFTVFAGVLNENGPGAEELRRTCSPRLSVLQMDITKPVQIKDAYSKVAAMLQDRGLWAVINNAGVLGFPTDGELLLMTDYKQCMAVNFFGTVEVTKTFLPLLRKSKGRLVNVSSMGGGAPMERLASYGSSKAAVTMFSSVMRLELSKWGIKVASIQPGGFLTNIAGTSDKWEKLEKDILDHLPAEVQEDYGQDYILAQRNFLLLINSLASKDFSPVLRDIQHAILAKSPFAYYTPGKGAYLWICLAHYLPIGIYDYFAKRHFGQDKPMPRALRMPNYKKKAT
The test can be described thus: Inhibition of the 17β-hydroxysteroid dehydrogenase type 2 enzyme, 3H-testosterone conversion. The conditions noted are these: inhibitor at 10 μM. How it is done:
Inhibition of the 17β-Hydroxysteroid Dehydrogenase Type 2 Enzyme
Recombinant human 173-HSD2 protein (GenBank Accession No. NM_002153.3) produced in Sf-9 insect cells with baculovirus was used for screening.
Recombinant protein (105 nM/4.5 μg/ml) was incubated in 20 mM KH2PO4 pH 8.5, 1 mM EDTA, complete protease inhibitor cocktail, 1 mM NAD with 56.25 nM testosterone (including ^3H-labelled testosterone) for 30 min at RT, in the presence of the potential inhibitor at 10 μM concentration. Inhibitor stock solutions were prepared in DMSO. Final concentration of DMSO was adjusted to 1% in all samples. The enzyme reaction was stopped by addition of 10% trichloroacetic acid (final concentration 1%). Samples were filtrated through […] filtration plate. Analyses of samples was done with Waters Acquity UPLC H-class equipped with XBridge C18 column and XBridge VanGuard C18 guard column. Acetonitrile: 0.1% formic acid in water (42/58 v/v) with flow of 1.2 ml/min was used for mobile phase. The eluent was mixed with scintillant and the radioactivity was monitored in the eluate by a Scintillation Analyser. The conversion percentage of tritiated substrate (testosterone) to product tritiated (androstenedione) for each sample was determined by the relative percentages of substrate and product in the chromatogram. The inhibition percentages of samples were calculated using following formula: […]

In the case of `N#CC(=C1CCN(C(=O)N2CCn3cncc3C2)CC1)c1ccc(F)cc1` [Compound 27, 2-(4-fluorophenyl)-2-(1-(5,6,7,8-tetrahydroimidazo[1,5-a]pyrazine-7-carbonyl)piperidin-4-ylidene)acetonitrile], the inhibition at 0.5 µM in test [1] worked out at 98%. The inhibition at 10 µM in test [2] amounted to 16%; in test [3] it was 7%.
As for `N#CC(=C1CCN(C(=O)N2CCn3cccc3C2)CC1)c1ccc(F)cc1` [Compound 28, 2-(4-fluorophenyl)-2-(1-(1,2,3,4-tetrahydropyrrolo[1,2-a]pyrazine-2-carbonyl)piperidin-4-ylidene)acetonitrile], in test [1], the inhibition at 0.5 µM turned out to be 97%. For the same compound, the inhibition at 10 µM in test [2] came out at 8%; in test [3] it was 27%.
As to `N#CC(=C1CCN(C(=O)N2C[C@@H]3CC[C@@H]2C3)CC1)c1ccc(F)cc1` [Compound 29, 2-(1-((1R,4R)-2-azabicyclo[2.2.1]heptane-2-carbonyl)piperidin-4-ylidene)-2-(4-fluorophenyl)acetonitrile], the inhibition at 0.5 µM in test [1] turned out to be 96%. Also, the inhibition at 10 µM came to 5% in test [2] and 30% in test [3].
For the compound `N#CC(=C1CCN(C(=O)N2CCc3cccnc32)CC1)c1ccc(F)cc1` [Compound 30, 2-(1-(2,3-dihydro-1H-pyrrolo[2,3-b]pyridine-1-carbonyl)piperidin-4-ylidene)-2-(4-fluorophenyl)acetonitrile], in test [1], the inhibition at 0.5 µM turned out to be 95%. Further, the inhibition at 10 µM was determined as 15% in test [2] and 14% in test [3].
With `N#CC(=C1CCN(C(=O)N2C3CCC2COC3)CC1)c1ccc(F)c(F)c1` [Compound 31, 2-(1-(3-oxa-8-azabicyclo[3.2.1]octane-8-carbonyl)piperidin-4-ylidene)-2-(3,4-difluorophenyl)acetonitrile], the inhibition at 0.5 µM in test [1] came out at 95%. Further, the inhibition at 10 µM in test [2] was 11%; in test [3], 9%.
As for `N#CC(=C1CCN(C(=O)N2CCc3nocc3C2)CC1)c1ccc(F)c(F)c1` [Compound 32, 2-(3,4-difluorophenyl)-2-(1-(4,5,6,7-tetrahydroisoxazolo[4,3-c]pyridine-5-carbonyl)piperidin-4-ylidene)acetonitrile], the inhibition at 0.5 µM in test [1] was 97%. Moreover, the results for the inhibition at 10 µM in test [2] and in test [3] were 17% and 4%, respectively.
With `N#CC(=C1CCN(C(=O)N2CCC(CO)CC2)CC1)c1ccc(F)c(F)c1` [Compound 33, 2-(3,4-difluorophenyl)-2-(1-(4-(hydroxymethyl)piperidine-1-carbonyl)piperidin-4-ylidene)acetonitrile], in test [1], the inhibition at 0.5 µM turned out to be 97%. Further, the inhibition at 10 µM in test [2] was 16%; in test [3], 7%.
On to `N#CC(=C1CCN(C(=O)N2C[C@@H]3CC[C@@H]2C3)CC1)c1ccc(F)c(F)c1` [Compound 34, 2-(1-((1R,4R)-2-azabicyclo[2.2.1]heptane-2-carbonyl)piperidin-4-ylidene)-2-(3,4-difluorophenyl)acetonitrile], for which the inhibition at 0.5 µM in test [1] is 95%. Besides, the figures for the inhibition at 10 µM in test [2] and in test [3] were 12% and 21%, respectively.
On to `N#CC(=C1CCN(C(=O)N2CCc3sccc3C2)CC1)c1ccc(F)c(F)c1` [Compound 35, 2-(3,4-difluorophenyl)-2-(1-(4,5,6,7-tetrahydrothieno[3,2-c]pyridine-5-carbonyl)piperidin-4-ylidene)acetonitrile], for which the inhibition at 0.5 µM in test [1] was found to be 96%. In addition, the inhibition at 10 µM in test [2] stood at 27%; in test [3], 28%.
In the case of `N#CC(=C1CCN(C(=O)N2CC(C#N)C2)CC1)c1ccc(F)c(F)c1` [Compound 36, 1-(4-(cyano(3,4-difluorophenyl)methylene)piperidine-1-carbonyl)azetidine-3-carbonitrile], the inhibition at 0.5 µM in test [1] was determined as 94%. The inhibition at 10 µM was 10% in test [2] and -3% in test [3].
Regarding `N#CC(=C1CCN(C(=O)N2C3CCC2COC3)CC1)c1ccc(F)cc1F` [Compound 37, 2-(1-(3-oxa-8-azabicyclo[3.2.1]octane-8-carbonyl)piperidin-4-ylidene)-2-(2,4-difluorophenyl)acetonitrile], the inhibition at 0.5 µM in test [1] was 96%. The inhibition at 10 µM in test [2] came out at 14%; in test [3], 25%.
For `N#CC(=C1CCN(C(=O)N2CCc3nocc3C2)CC1)c1ccc(F)cc1F` [Compound 38, 2-(2,4-difluorophenyl)-2-(1-(4,5,6,7-tetrahydroisoxazolo[4,3-c]pyridine-5-carbonyl)piperidin-4-ylidene)acetonitrile] the same measures were 97%, 30% and 27%.
On to `N#CC(=C1CCN(C(=O)N2CCC(CO)CC2)CC1)c1ccc(F)cc1F` [Compound 39, 2-(2,4-difluorophenyl)-2-(1-(4-(hydroxymethyl)piperidine-1-carbonyl)piperidin-4-ylidene)acetonitrile], for which the inhibition at 0.5 µM in test [1] was found to be 96%. Further, the figures for the inhibition at 10 µM in test [2] and in test [3] were 13% and 6%, respectively.
Consider `N#CC(=C1CCN(C(=O)N2CC(C#N)C2)CC1)c1ccc(F)cc1F` [Compound 40, 1-(4-(cyano(2,4-difluorophenyl)methylene)piperidine-1-carbonyl)azetidine-3-carbonitrile], for which the inhibition at 0.5 µM in test [1] amounted to 95%. Moreover, the inhibition at 10 µM in test [2] was found to be 14%; in test [3], 5%.

What is called inhibition is the relative decrease from the control value, in per cent.
